Test results: patent US20070213346A1, “Substituted 4-Alkyl-And 4-Alkanoyl-Piperidine Derivatives And Their Use As Neurokinin Antagonists” (priority 2004, published 2007)

Key:
Type in all cases: cell-based
[1] = biological target: T1, NK2 (Homo sapiens, UniProt P21452); test: Signal transduction (ST), intracellular Ca++ FLIPR, NK2; settings: antagonist, Ca++ transient peak, read-out: NK2 pIC50 (converted)
T1 sequence (P21452 1-398): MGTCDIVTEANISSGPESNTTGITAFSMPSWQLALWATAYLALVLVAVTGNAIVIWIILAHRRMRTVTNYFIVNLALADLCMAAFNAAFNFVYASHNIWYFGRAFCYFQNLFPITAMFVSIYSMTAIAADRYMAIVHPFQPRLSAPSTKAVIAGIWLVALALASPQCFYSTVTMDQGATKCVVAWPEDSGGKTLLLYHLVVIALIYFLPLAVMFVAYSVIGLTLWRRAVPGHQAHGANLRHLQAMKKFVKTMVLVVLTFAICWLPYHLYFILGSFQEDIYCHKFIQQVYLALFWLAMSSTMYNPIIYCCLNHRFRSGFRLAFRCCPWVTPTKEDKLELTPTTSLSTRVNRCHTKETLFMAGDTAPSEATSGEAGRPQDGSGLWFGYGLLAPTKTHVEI
Description: [The source words this procedure for another target and reports this target under the same test.] (§1) This test evaluates in vitro functional NK1 antagonistic activity. For the measurements of intracellular Ca^++ concentrations the cells were grown on 96-well (black wall/transparent bottom) plates from Costar for 2 days until they reached confluence. The cells were loaded with 2 μM Fluo3 in DMEM containing 0.1% BSA and 2.5 mM probenecid for 1 h at 37° C. They were washed 3× with a Krebs buffer (140 mM NaCl, 1 mM MgCl2x6H2O, 5 mM KCl, 10 mM glucose, 5 mM HEPES; 1.25 mM CaCl2; pH 7.4) containing 2.5 mM probenecid and 0.1% BSA (Ca^++-buffer). The cells were preincubated with a concentration range of antagonists for 20 min at RT and Ca^++-signals after addition of the agonists were measured in a Fluorescence Image Plate Reader (FLIPR from Molecular Devices, Crawley, England). The peak of the Ca^++-transient was considered as the relevant signal and the mean values of corresponding wells were analysed as described below.
(§2) The sigmoidal dose response curves were analysed by computerised curve-fitting, using the GraphPad program. The EC50-value of a compound is the effective dose showing 50% of maximal effect. For mean curves the response to the agonist with the highest potency was normalised to 100%. For antagonist responses the IC50-value was calculated using non-linear regression.
(§3) The last columns indicates—without being limited thereto—for which use the compounds might be most suitable. Of course, since for some neurokinin receptors no data was determined, it is obvious that these compounds might be attributed to another suitable use.

[2] = biological target: NK1 (Homo sapiens, UniProt P25103); test: Signal transduction (ST), intracellular Ca++ FLIPR, NK1; settings: antagonist, Ca++ transient peak, read-out: NK1 pIC50 (converted)
Description: as §1
as §2, with “regression. […]” for “regression.”

[3] = biological target: T2, NK3 (Homo sapiens, UniProt P29371); test: Signal transduction (ST), intracellular Ca++ FLIPR, NK3; settings: antagonist, Ca++ transient peak, read-out: NK3 pIC50 (converted)
T2 sequence (P29371 1-465): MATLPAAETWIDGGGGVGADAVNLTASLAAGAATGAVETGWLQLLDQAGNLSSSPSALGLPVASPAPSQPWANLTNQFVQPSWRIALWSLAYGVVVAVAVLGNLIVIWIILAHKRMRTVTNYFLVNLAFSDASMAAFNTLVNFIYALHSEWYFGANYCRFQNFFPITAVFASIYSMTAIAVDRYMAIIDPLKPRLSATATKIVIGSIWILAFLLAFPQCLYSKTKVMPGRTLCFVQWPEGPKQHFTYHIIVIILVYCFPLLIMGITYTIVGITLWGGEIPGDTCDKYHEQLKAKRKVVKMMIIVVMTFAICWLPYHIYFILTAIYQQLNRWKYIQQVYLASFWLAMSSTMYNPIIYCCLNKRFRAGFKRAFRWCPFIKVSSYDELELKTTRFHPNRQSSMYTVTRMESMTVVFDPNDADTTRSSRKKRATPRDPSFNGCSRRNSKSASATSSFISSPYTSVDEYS
Description: [The source words this procedure for another target and reports this target under the same test.] as §1, §2, §3

Sequence of NK1 (P25103 whole entry): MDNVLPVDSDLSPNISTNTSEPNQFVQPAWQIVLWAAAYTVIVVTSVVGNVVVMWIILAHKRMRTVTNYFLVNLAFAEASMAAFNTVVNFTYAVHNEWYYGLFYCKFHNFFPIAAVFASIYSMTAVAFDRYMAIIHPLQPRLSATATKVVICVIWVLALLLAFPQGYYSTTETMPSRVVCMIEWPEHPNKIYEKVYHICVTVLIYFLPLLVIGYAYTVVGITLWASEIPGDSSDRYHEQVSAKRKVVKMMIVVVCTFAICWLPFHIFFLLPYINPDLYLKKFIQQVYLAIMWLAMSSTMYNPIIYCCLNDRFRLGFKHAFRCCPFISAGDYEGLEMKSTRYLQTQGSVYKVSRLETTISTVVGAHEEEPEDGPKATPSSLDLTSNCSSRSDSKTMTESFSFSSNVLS

IC50 [1] | IC50 [2] | IC50 [3] | Compound
8.91 µM | 0.275 µM | 7.08 µM | O=C(c1cccs1)N1CCC(N2CCN(C[C@H]3CCN(C(=O)c4cc(C(F)(F)F)cc(C(F)(F)F)c4)[C@H](Cc4ccccc4)C3)CC2)CC1 (relative stereo) [Compound 37]
7.41 µM | 0.0501 µM | ~7.94 µM | O=C(c1ccoc1)N1CCC(N2CCN(CC3CCN(C(=O)c4cc(C(F)(F)F)cc(C(F)(F)F)c4)C(Cc4ccccc4)C3)CC2)C1 (stereo not drawn) [Compound 11]
~3.16 µM | 0.191 µM | ~7.76 µM | O=C(C1CC1)N1CCC(N2CCN(CC3CCN(C(=O)c4cc(C(F)(F)F)cc(C(F)(F)F)c4)C(Cc4ccccc4)C3)CC2)CC1 (stereo not drawn) [Compound 15]
7.24 µM | 0.0851 µM | 5.25 µM | O=C(c1cc(C(F)(F)F)cc(C(F)(F)F)c1)N1CCC(CN2CCN(C3CCN(c4ncccn4)CC3)CC2)CC1Cc1ccccc1 (stereo not drawn) [Compound 17]
> 10 µM | 0.229 µM | > 10 µM | Cc1ccc(N2CCC(N3CCN(CC4CCN(C(=O)c5cc(C(F)(F)F)cc(C(F)(F)F)c5)C(Cc5ccccc5)C4)CC3)CC2)nn1 (stereo not drawn) [Compound 18]
> 10 µM | 0.288 µM | 7.94 µM | O=C(c1cc(C(F)(F)F)cc(C(F)(F)F)c1)N1CCC(CN2CCN(C3CCN(c4cnccn4)CC3)CC2)CC1Cc1ccccc1 (stereo not drawn) [Compound 19]
> 10 µM | 0.0933 µM | > 10 µM | Cn1c(Cl)cnc1CN1CCC(N2CCN(CC3CCN(C(=O)c4cc(C(F)(F)F)cc(C(F)(F)F)c4)C(Cc4ccccc4)C3)CC2)CC1 (stereo not drawn) [Compound 20]
2.34 µM | 0.316 µM | ~9.77 µM | COc1cccc(CC(=O)N2CCC(N3CCN(CC4CCN(C(=O)c5cc(C(F)(F)F)cc(C(F)(F)F)c5)C(Cc5ccccc5)C4)CC3)CC2)c1 (stereo not drawn) [Compound 52]
4.68 µM | 0.0123 µM | 0.692 µM | O=C(C1CC1)N1CCC(N2CCN(C(=O)[C@H]3CCN(C(=O)c4cc(C(F)(F)F)cc(C(F)(F)F)c4)[C@H](Cc4ccccc4)C3)CC2)CC1 [Compound 56]
> 10 µM | 0.182 µM | > 10 µM | O=C(c1cc(C(F)(F)F)cc(C(F)(F)F)c1)N1CCC(CN2CCN(C3CCNC3)CC2)CC1Cc1ccccc1 (stereo not drawn) [Compound 60]
> 10 µM | 0.0741 µM | > 10 µM | O=C(C1CC1)N1CCC(N2CCN(C[C@H]3CCN(C(=O)c4cc(C(F)(F)F)cc(C(F)(F)F)c4)[C@H](Cc4ccccc4)C3)CC2)C1 (stereo partly drawn) [Compound 61]
7.24 µM | 0.1 µM | > 10 µM | O=C(c1ccsc1)N1CCC(N2CCN(C[C@H]3CCN(C(=O)c4cc(C(F)(F)F)cc(C(F)(F)F)c4)[C@H](Cc4ccccc4)C3)CC2)C1 (stereo partly drawn) [Compound 62]
> 10 µM | 0.0708 µM | > 10 µM | Cc1nnsc1C(=O)N1CCC(N2CCN(C[C@H]3CCN(C(=O)c4cc(C(F)(F)F)cc(C(F)(F)F)c4)[C@H](Cc4ccccc4)C3)CC2)C1 (stereo partly drawn) [Compound 63]
> 10 µM | 0.117 µM | > 10 µM | O=C(c1ccccc1)N1CCC(N2CCN(C[C@H]3CCN(C(=O)c4cc(C(F)(F)F)cc(C(F)(F)F)c4)[C@H](Cc4ccccc4)C3)CC2)C1 (stereo partly drawn) [Compound 64]
> 10 µM | 0.105 µM | > 10 µM | O=C(c1cccnc1)N1CCC(N2CCN(C[C@H]3CCN(C(=O)c4cc(C(F)(F)F)cc(C(F)(F)F)c4)[C@H](Cc4ccccc4)C3)CC2)C1 (stereo partly drawn) [Compound 65]
> 10 µM | 0.148 µM | > 10 µM | O=C(c1cc(C(F)(F)F)cc(C(F)(F)F)c1)N1CCC(O)(CN2CCN(C3CCNC3)CC2)CC1Cc1ccccc1 (stereo not drawn) [Compound 76]
7.94 µM | 0.0427 µM | 2.88 µM | O=C(C1CC1)N1CCC(N2CCN(CC3(O)CCN(C(=O)c4cc(C(F)(F)F)cc(C(F)(F)F)c4)C(Cc4ccccc4)C3)CC2)C1 (stereo not drawn) [Compound 77]
8.91 µM | 0.0363 µM | 2.51 µM | O=C(c1ccoc1)N1CCC(N2CCN(CC3(O)CCN(C(=O)c4cc(C(F)(F)F)cc(C(F)(F)F)c4)C(Cc4ccccc4)C3)CC2)C1 (stereo not drawn) [Compound 78]
9.12 µM | 0.0316 µM | 7.24 µM | O=C(c1ccccc1)N1CCC(N2CCN(CC3(O)CCN(C(=O)c4cc(C(F)(F)F)cc(C(F)(F)F)c4)C(Cc4ccccc4)C3)CC2)C1 (stereo not drawn) [Compound 79]
8.13 µM | 0.0302 µM | > 10 µM | O=C(c1cccnc1)N1CCC(N2CCN(CC3(O)CCN(C(=O)c4cc(C(F)(F)F)cc(C(F)(F)F)c4)C(Cc4ccccc4)C3)CC2)C1 (stereo not drawn) [Compound 80]
6.76 µM | 0.024 µM | 0.871 µM | O=C(C1CCOC1)N1CCC(N2CCN(C(=O)[C@H]3CCN(C(=O)c4cc(C(F)(F)F)cc(C(F)(F)F)c4)[C@H](Cc4ccccc4)C3)CC2)CC1 (stereo partly drawn) [Compound 92]
7.76 µM | 0.0398 µM | 4.27 µM | Cc1nnsc1C(=O)N1CCC(N2CCN(CC3(O)CCN(C(=O)c4cc(C(F)(F)F)cc(C(F)(F)F)c4)C(Cc4ccccc4)C3)CC2)C1 (stereo not drawn) [Compound 93]
